Patent US6764996B1, “9a-azalides with antibacterial activity” (Abbott Laboratories, priority 1999, dated 2004)

Columns and labels:
Assay in all cases: In vitro antibacterial activity, agar dilution MIC
Format in all cases: cell-based
[1] = system: Streptococcus pyogenes PIU 2548; conditions: code NN: Streptococcus pyogenes PIU 2548; BHI agar, 35-37° C., 20 to 24 hours; unit assumed
Experimental: (§1) Representative compounds of the present invention were assayed in vitro for antibacterial activity as follows: Twelve petri dishes containing successive aqueous dilutions of the test compound mixed with 10 mL of sterilized Brain Heart Infusion (BHI) agar (Difco 0418-01-5) were prepared. Each plate was inoculated with 1:100 (or 1:10 for slow-growing strains, such as Micrococcus and Streptococcus) dilutions of up to 32 different microorganisms, using a Steers replicator block. The inoculated plates were incubated at 35-37° C. for 20 to 24 hours. In addition, a control plate, using BHI agar containing no test compound, was prepared and incubated at the beginning and end of each test.
(§2) An additional plate containing a compound having known susceptibility patterns for the organisms being tested and belonging to the same antibiotic class as the test compound was also prepared and incubated as a further control, as well as to provide test-to-test comparability. Erythromycin A was used for this purpose.
(§3) After incubation, each plate was visually inspected. The minimum inhibitory concentration (MIC) was defined as the lowest concentration of drug yielding no growth, a slight haze, or sparsely isolated colonies on the inoculum spot as compared to the growth control.

[2] = system: Staphylococcus epidermidis 3519; conditions: code HH: Staphylococcus epidermidis 3519; BHI agar, 35-37° C., 20 to 24 hours; unit assumed
Experimental: as §1, §2, §3

[3] = system: Staphylococcus aureus A-5278; conditions: code CC: Staphylococcus aureus A-5278; BHI agar, 35-37° C., 20 to 24 hours; unit assumed
Experimental: as §1, §2, §3

[4] = system: Staphylococcus aureus A-5177; conditions: code BB: Staphylococcus aureus A-5177; BHI agar, 35-37° C., 20 to 24 hours; unit assumed
Experimental: as §1, §2, §3

[5] = system: Streptococcus agalactiae CMX 508; conditions: code KK: Streptococcus agalactiae CMX 508; BHI agar, 35-37° C., 20 to 24 hours; unit assumed
Experimental: as §1, §2, §3

[6] = system: Streptococcus Pneumonia 5649; conditions: code ZA: Streptococcus Pneumonia 5649; BHI agar, 35-37° C., 20 to 24 hours; unit assumed
Experimental: as §1, §2, §3

Candida albicans CCH 442 = conditions: code TT: Candida albicans CCH 442; BHI agar, 35-37° C., 20 to 24 hours; unit assumed
Experimental: as §1, §2, §3

[7] = system: Mycobacterium smegmatis ATCC 114; conditions: code UU: Mycobacterium smegmatis ATCC 114; BHI agar, 35-37° C., 20 to 24 hours; unit assumed
Experimental: as §1, §2, §3

[8] = system: Staphylococcus aureus ATCC 6538P; conditions: code AA: Staphylococcus aureus ATCC 6538P; BHI agar, 35-37° C., 20 to 24 hours; unit assumed
Experimental: as §1, §2, §3

[9] = system: Streptococcus Pneumonia GYR 1171; conditions: code YY: Streptococcus Pneumonia GYR 1171; BHI agar, 35-37° C., 20 to 24 hours; unit assumed
Experimental: as §1, §2, §3

[10] = system: Streptococcus pyogenes 930; conditions: code MM: Streptococcus pyogenes 930; BHI agar, 35-37° C., 20 to 24 hours; unit assumed
Experimental: as §1, §2, §3

Escherichiacoli JUHL = conditions: code QQ: Escherichiacoli JUHL; BHI agar, 35-37° C., 20 to 24 hours; unit assumed
Experimental: as §1, §2, §3

[11] = system: Streptococcus bovis A-5169; conditions: code JJ: Streptococcus bovis A-5169; BHI agar, 35-37° C., 20 to 24 hours; unit assumed
Experimental: as §1, §2, §3

[12] = system: Staphylococcus aureus 1775; conditions: code GG: Staphylococcus aureus 1775; BHI agar, 35-37° C., 20 to 24 hours; unit assumed
Experimental: as §1, §2, §3

[13] = system: Streptococcus pyogenes EES61; conditions: code LL: Streptococcus pyogenes EES61; BHI agar, 35-37° C., 20 to 24 hours; unit assumed
Experimental: as §1, §2, §3

[14] = system: Nocardia Asteroides ATCC 99700; conditions: code VV: Nocardia Asteroides ATCC 99700; BHI agar, 35-37° C., 20 to 24 hours; unit assumed
Experimental: as §1, §2, §3

[15] = system: Micrococcusluteus ATCC 4698; conditions: code PP: Micrococcusluteus ATCC 4698; BHI agar, 35-37° C., 20 to 24 hours; unit assumed
Experimental: as §1, §2, §3

[16] = system: Staphylococcus aureus NCTC 10649M; conditions: code EE: Staphylococcus aureus NCTC 10649M; BHI agar, 35-37° C., 20 to 24 hours; unit assumed
Experimental: as §1, §2, §3

[17] = system: Haemophilislnfluenzae DILL AMP R; conditions: code WW: Haemophilislnfluenzae DILL AMP R; BHI agar, 35-37° C., 20 to 24 hours; unit assumed
Experimental: as §1, §2, §3

Escherichiacoli SS = conditions: code RR: Escherichiacoli SS; BHI agar, 35-37° C., 20 to 24 hours; unit assumed
Experimental: as §1, §2, §3

[18] = system: Streptococcus Pneumonia ATCC 6303; conditions: code XX: Streptococcus Pneumonia ATCC 6303; BHI agar, 35-37° C., 20 to 24 hours; unit assumed
Experimental: as §1, §2, §3

[19] = system: Streptococcus Pneumonia 5979; conditions: code ZZ: Streptococcus Pneumonia 5979; BHI agar, 35-37° C., 20 to 24 hours; unit assumed
Experimental: as §1
An additional plate containing a compound having known susceptibility patterns for the organisms being tested and belonging to the same antibiotic class as the test compound was also prepared and incubated as a further control, as well as to provide test-to-test comparability.
as §3

SMILES | Antibacterial Activity (MIC) [1] [µg/mL] | Antibacterial Activity (MIC) [2] [µg/mL] | Antibacterial Activity (MIC) [3] [µg/mL] | Antibacterial Activity (MIC) [4] [µg/mL] | Antibacterial Activity (MIC) [5] [µg/mL] | Antibacterial Activity (MIC) [6] [µg/mL] | Antibacterial Activity (MIC) (Candida albicans CCH 442) [µg/mL] | Antibacterial Activity (MIC) [7] [µg/mL] | Antibacterial Activity (MIC) [8] [µg/mL] | Antibacterial Activity (MIC) [9] [µg/mL] | Antibacterial Activity (MIC) [10] [µg/mL] | Antibacterial Activity (MIC) (Escherichiacoli JUHL) [µg/mL] | Antibacterial Activity (MIC) [11] [µg/mL] | Antibacterial Activity (MIC) [12] [µg/mL] | Antibacterial Activity (MIC) [13] [µg/mL] | Antibacterial Activity (MIC) [14] [µg/mL] | Antibacterial Activity (MIC) [15] [µg/mL] | Antibacterial Activity (MIC) [16] [µg/mL] | Antibacterial Activity (MIC) [17] [µg/mL] | Antibacterial Activity (MIC) (Escherichiacoli SS) [µg/mL] | other results
CCC1OC(=O)C(C)C(=O)C(C)C(OC2OC(C)CC(N(C)C)C2O)C(C)(OCC=Cc2cnc3ccccc3c2)CC(C)CN(C)C(C)C(O)C1(C)O (centres unmarked) [Example 5, Compound of formula (II): R^1 is —CH2CH═CH-(3-quinolinyl), R^2 and R^3 together are oxo, R^4 is hydrogen, R^5 is hydrogen, R^6 is methyl, R^8 is hydrogen] | 6.2 | 0.2 | > 100 | 12.5 | 0.05 | 8 | > 100 | 6.2 | 0.2 | 0.03 | > 100 | 50 | 0.02 | > 100 | 0.05 | 0.1 | 0.39 | 0.39 | 4 | 0.78 | Antibacterial Activity (MIC) [18]: 0.06 µg/mL; Antibacterial Activity (MIC) [19]: > 128 µg/mL
C=CCOC1(C)CC(C)CN(C)C(C)C(O)C(C)(O)C(CC)OC(=O)C(C)C(OC2CC(C)(OC)C(O)C(C)O2)C(C)C1OC1OC(C)CC(N(C)C)C1O (centres unmarked) [Example 3, Compound of formula (I): R^1 is —CH2CH═CH2, R^4 is hydrogen, R^5 is hydrogen, R^6 is methyl, R^7 is hydrogen, R^8 is hydrogen] | 6.2 | 0.39 | > 100 | 12.5 | 0.1 | 8 | > 100 | 6.2 | 0.2 | 0.06 | > 100 | 50 | 0.05 | > 100 | 0.05 | 0.1 | 0.39 | 0.39 | 8 | 0.39 | Antibacterial Activity (MIC) [18]: 0.06 µg/mL; Antibacterial Activity (MIC) [19]: > 128 µg/mL
